From patent publication US20230139171A1 (SITA Information Networking Computing UK Limited, priority 2019, published 2023)

Experiments:
human TLR8 = target: T1, human TLR8 (Homo sapiens, UniProt Q9NR97); test: TLR8 inhibition reporter assay (HEK-Blue cells, SEAP reporter, R848 stimulation); type: cell-based; conditions: HEK-Blue cells overexpressing human TLR8, SEAP reporter, R848 15.9 μM; read-out: TLR8 IC50
T1 construct: host or cells: HEK-Blue cells
T1 sequence (Q9NR97 27-1041): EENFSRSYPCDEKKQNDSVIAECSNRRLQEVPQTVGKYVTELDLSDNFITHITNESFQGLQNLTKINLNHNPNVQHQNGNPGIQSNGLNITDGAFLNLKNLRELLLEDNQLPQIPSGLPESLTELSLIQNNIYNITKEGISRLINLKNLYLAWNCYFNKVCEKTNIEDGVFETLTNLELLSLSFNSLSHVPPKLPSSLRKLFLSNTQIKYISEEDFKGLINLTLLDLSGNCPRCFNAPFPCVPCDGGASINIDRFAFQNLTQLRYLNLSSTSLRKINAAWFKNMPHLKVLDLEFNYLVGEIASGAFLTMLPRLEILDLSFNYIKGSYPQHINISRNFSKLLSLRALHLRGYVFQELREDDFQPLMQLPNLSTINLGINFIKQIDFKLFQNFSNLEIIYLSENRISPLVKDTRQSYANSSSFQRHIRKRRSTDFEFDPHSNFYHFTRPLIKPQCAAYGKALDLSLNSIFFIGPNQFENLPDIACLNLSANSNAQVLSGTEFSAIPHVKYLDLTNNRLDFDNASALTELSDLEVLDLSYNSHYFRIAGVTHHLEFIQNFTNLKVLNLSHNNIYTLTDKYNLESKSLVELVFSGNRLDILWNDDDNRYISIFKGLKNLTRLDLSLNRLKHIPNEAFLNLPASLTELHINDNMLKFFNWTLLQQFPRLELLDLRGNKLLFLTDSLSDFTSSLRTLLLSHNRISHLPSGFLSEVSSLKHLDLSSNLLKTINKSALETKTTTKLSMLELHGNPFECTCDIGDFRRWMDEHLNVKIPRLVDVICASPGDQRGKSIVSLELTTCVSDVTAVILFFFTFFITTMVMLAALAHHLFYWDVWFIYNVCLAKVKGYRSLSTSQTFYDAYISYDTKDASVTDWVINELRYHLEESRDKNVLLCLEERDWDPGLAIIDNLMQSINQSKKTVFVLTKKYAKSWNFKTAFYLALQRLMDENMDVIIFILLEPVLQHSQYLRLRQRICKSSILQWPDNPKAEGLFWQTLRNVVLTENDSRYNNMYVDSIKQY
Description: (§1) TLR7/8/9 Inhibition Reporter Assays
(§2) HEK-Blue™-cells (Invivogen) overexpressing human TLR7, TLR8 or TLR9 receptors were used for screening inhibitors of these receptors using an inducible SEAP (secreted embryonic alkaline phosphatase) reporter gene under the control of the IFN-β minimal promoter fused to five NF-κB and AP-1-binding sites. Briefly, cells are seeded into Greiner 384 well plates (15000 cells per well for TLR7, 20,000 for TLR8 and 25,000 for TLR9) and then treated with test compounds in DMSO to yield a final dose response concentration range of 0.05 nM-50 μM. After a 30 minute compound pre-treatment at room temperature, the cells are then stimulated with a TLR7 ligand (gardiquimod at a final concentration of 7.5 μM), TLR8 ligand (R848 at a final concentration of 15.9 μM) or TLR9 ligand (ODN2006 at a final concentration of 5 nM) to activate NF-κB and AP-1 which induce the production of SEAP. After a 22 hour incubation at 37° C., 5% CO2, SEAP levels are determined with the addition of HEK-Blue™ Detection reagent (Invivogen), a cell culture medium that allows for detection of SEAP, according to manufacturer's specifications. The percent inhibition is determined as the % reduction in the HEK-Blue signal present in wells treated with agonist plus DMSO alone compared to wells treated with a known inhibitor.

human TLR7 = target: T2, human TLR7 (Homo sapiens, UniProt Q9NYK1); test: TLR7 inhibition reporter assay (HEK-Blue cells, SEAP reporter, gardiquimod stimulation); type: cell-based; conditions: HEK-Blue cells overexpressing human TLR7, SEAP reporter, gardiquimod 7.5 μM; read-out: TLR7 IC50
T2 construct: host or cells: HEK-Blue cells
T2 sequence (Q9NYK1 27-1049): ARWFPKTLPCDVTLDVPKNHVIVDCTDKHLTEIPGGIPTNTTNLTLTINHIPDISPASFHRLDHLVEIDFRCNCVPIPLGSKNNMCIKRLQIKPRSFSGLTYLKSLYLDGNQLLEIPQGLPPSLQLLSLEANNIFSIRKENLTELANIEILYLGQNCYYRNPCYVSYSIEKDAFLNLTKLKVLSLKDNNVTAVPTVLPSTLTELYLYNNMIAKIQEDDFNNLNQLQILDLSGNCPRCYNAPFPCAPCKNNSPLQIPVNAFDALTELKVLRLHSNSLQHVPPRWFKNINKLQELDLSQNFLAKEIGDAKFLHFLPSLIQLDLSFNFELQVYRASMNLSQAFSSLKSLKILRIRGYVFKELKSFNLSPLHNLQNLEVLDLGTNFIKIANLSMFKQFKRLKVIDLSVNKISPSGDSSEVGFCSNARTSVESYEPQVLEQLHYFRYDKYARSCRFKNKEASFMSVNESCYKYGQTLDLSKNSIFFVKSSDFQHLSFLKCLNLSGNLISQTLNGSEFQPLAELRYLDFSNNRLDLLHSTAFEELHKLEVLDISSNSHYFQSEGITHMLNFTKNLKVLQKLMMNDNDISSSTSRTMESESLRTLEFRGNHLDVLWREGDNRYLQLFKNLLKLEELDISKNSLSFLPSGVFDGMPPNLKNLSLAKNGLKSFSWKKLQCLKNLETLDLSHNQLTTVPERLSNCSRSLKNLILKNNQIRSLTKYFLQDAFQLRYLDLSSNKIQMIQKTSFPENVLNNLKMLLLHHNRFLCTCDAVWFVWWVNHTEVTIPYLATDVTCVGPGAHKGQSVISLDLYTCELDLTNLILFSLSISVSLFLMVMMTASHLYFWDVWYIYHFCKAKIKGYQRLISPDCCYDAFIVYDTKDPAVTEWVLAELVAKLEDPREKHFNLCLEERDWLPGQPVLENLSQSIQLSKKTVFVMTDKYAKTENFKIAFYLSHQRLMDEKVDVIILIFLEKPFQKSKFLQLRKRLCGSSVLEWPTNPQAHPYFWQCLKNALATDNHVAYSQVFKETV
Description: as §1, §2

| SMILES | IC50 (human TLR8) | IC50 (human TLR7) |
| --- | --- | --- |
| Cc1c(-c2[nH]c3sc(N4CCN(CC(N)=O)CC4)nc3c2C(C)C)cn2ncnc2c1C [Example 285, 2-(4-(5-(7,8-dimethyl-[1,2,4]triazolo[1,5-a]pyridin-6-yl)-6-isopropyl-4H-pyrrolo[3,2-d]thiazol-2-yl)piperazin-1-yl)acetamide] | 2.71 nM | 7.7 nM |
| Cc1c(-c2[nH]c3sc(N4CCN(C5COC5)CC4)nc3c2C(C)C)cn2ncnc2c1C [Example 286, 5-(7,8-dimethyl-[1,2,4]triazolo[1,5-a]pyridin-6-yl)-6-isopropyl-2-(4-(oxetan-3-yl)piperazin-1-yl)-4H-pyrrolo[3,2-d]thiazole] | 14.6 nM | 25.6 nM |
| Cc1c(-c2[nH]c3sc(N4CC5(C4)CN(C4COC4)C5)nc3c2C(C)C)cn2ncnc2c1C [Example 302, 5-(7,8-dimethyl-[1,2,4]triazolo[1,5-a]pyridin-6-yl)-6-isopropyl-2-(6-(oxetan-3-yl)-2,6-diazaspiro[3.3]heptan-2-yl)-4H-pyrrolo[3,2-d]thiazole] | 14.2 nM | 9.44 nM |
| Cc1c(-c2[nH]c3sc(N4CC5(CN(CCS(C)(=O)=O)C5)C4)nc3c2C(C)C)cn(C)c(=O)c1C [Example 305, 5-(6-isopropyl-2-(6-(2-(methylsulfonyl)ethyl)-2,6-diazaspiro[3.3]heptan-2-yl)-4H-pyrrolo[3,2-d]thiazol-5-yl)-1,3,4-trimethylpyridin-2(1H)-one] | 70 nM | 311 nM |
| Cc1c(-c2[nH]c3sc(N4CC5(C4)CN(C4COC4)C5)nc3c2C(C)C)cn(C)c(=O)c1C [Example 306, 5-(6-isopropyl-2-(6-(oxetan-3-yl)-2,6-diazaspiro[3.3]heptan-2-yl)-4H-pyrrolo[3,2-d]thiazol-5-yl)-1,3,4-trimethylpyridin-2(1H)-one] | 124 nM | 148 nM |
| Cc1c(-c2[nH]c3sc(N4CC5(CN(CC6CCOCC6)C5)C4)nc3c2C(C)C)cn(C)c(=O)c1C [Example 307, 5-(6-isopropyl-2-(6-((tetrahydro-2H-pyran-4-yl)methyl)-2,6-diazaspiro[3.3]heptan-2-yl)-4H-pyrrolo[3,2-d]thiazol-5-yl)-1,3,4-trimethylpyridin-2(1H)-one] | 9.33 nM | 118 nM |
| Cc1c(-c2[nH]c3sc(N4CCN(CC(=O)N(C)C)C[C@H]4C)nc3c2C(C)C)cn2ncnc2c1C [Example 312, (R)-2-(4-(5-(7,8-dimethyl-[1,2,4]triazolo[1,5-a]pyridin-6-yl)-6-isopropyl-4H-pyrrolo[3,2-d]thiazol-2-yl)-3-methylpiperazin-1-yl)-N,N-dimethylacetamide] | 17.8 nM | 5.42 nM |
| Cc1c(-c2[nH]c3sc(N4CCN(CC(N)=O)C[C@H]4C)nc3c2C(C)C)cn2ncnc2c1C [Example 313, (R)-2-(4-(5-(7,8-dimethyl-[1,2,4]triazolo[1,5-a]pyridin-6-yl)-6-isopropyl-4H-pyrrolo[3,2-d]thiazol-2-yl)-3-methylpiperazin-1-yl)acetamide] | 1.72 nM | 3.71 nM |
| Cc1c(-c2[nH]c3sc(N4CCN(CCS(C)(=O)=O)C[C@H]4C)nc3c2C(C)C)cn2ncnc2c1C [Example 314, (R)-5-(7,8-dimethyl-[1,2,4]triazolo[1,5-a]pyridin-6-yl)-6-isopropyl-2-(2-methyl-4-(2-(methylsulfonyl)ethyl)piperazin-1-yl)-4H-pyrrolo[3,2-d] thiazole] | 18.5 nM | 13.9 nM |
| CNC(=O)CN1CCN(c2nc3c(C(C)C)c(-c4cn5ncnc5c(C)c4C)[nH]c3s2)[C@H](C)C1 [Example 315, (R)-2-(4-(5-(7,8-dimethyl-[1,2,4]triazolo[1,5-a]pyridin-6-yl)-6-isopropyl-4H-pyrrolo[3,2-d]thiazol-2-yl)-3-methylpiperazin-1-yl)-N-methylacetamide] | 20.2 nM | 5.22 nM |
| Cc1c(-c2[nH]c3sc(N4CCN(C5COC5)C[C@H]4C)nc3c2C(C)C)cn2ncnc2c1C [Example 316, (R)-5-(7,8-dimethyl-[1,2,4]triazolo[1,5-a]pyridin-6-yl)-6-isopropyl-2-(2-methyl-4-(oxetan-3-yl)piperazin-1-yl)-4H-pyrrolo[3,2-d]thiazole] | 52.4 nM | 12 nM |
| Cc1c(-c2[nH]c3sc(N4C[C@@H](C)N(CC(=O)N(C)C)C[C@@H]4C)nc3c2C(C)C)cn2ncnc2c1C [Example 335, 2-((2R,5S)-4-(5-(7,8-dimethyl-[1,2,4]triazolo[1,5-a]pyridin-6-yl)-6-isopropyl-4H-pyrrolo[3,2-d]thiazol-2-yl)-2,5-dimethylpiperazin-1-yl)-N,N-dimethylacetamide] | 11.1 nM | 15.5 nM |
| CNC(=O)CN1CCN(c2nc3c(C(C)C)c(-c4cn5ncnc5c(C)c4C)[nH]c3s2)[C@@H](C)C1 [Example 342, (S)-2-(4-(5-(7,8-dimethyl-[1,2,4]triazolo[1,5-a]pyridin-6-yl)-6-isopropyl-4H-pyrrolo[3,2-d]thiazol-2-yl)-3-methylpiperazin-1-yl)-N-methylacetamide] | 12.6 nM | 19.6 nM |
| Cc1c(-c2[nH]c3sc(N4CCN(CC(=O)N(C)C)C[C@@H]4C)nc3c2C(C)C)cn2ncnc2c1C [Example 343, (S)-2-(4-(5-(7,8-dimethyl-[1,2,4]triazolo[1,5-a]pyridin-6-yl)-6-isopropyl-4H-pyrrolo[3,2-d]thiazol-2-yl)-3-methylpiperazin-1-yl)-N,N-dimethylacetamide] | 3.3 nM | 24.1 nM |
| Cc1c(-c2[nH]c3sc(N4CCN(CCS(C)(=O)=O)C[C@@H]4C)nc3c2C(C)C)cn2ncnc2c1C [Example 344, (S)-5-(7,8-dimethyl-[1,2,4]triazolo[1,5-a]pyridin-6-yl)-6-isopropyl-2-(2-methyl-4-(2-(methylsulfonyl)ethyl)piperazin-1-yl)-4H-pyrrolo[3,2-d]thiazole] | 12.7 nM | 39 nM |
